This is an account of results in ChEMBL document CHEMBL1201862, “PubChem BioAssay data set” (2004).

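1) Cells in 96-well plates. 2) Compound, 48 h, 5 concentrations. 3) Linear interpolation between surrounding doses. 4) Unreached endpoint = highest concentration. At the GI50, growth is halved.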 Active and inactive are the calls of the source. Rule as the data show it: active = GI50 up to about 1.1 µM and inactive = higher. Bounds are passed on as bounds.

Among the test systems are UACC-62; OVCAR-4; SW-620; MDA-MB-231; T47D; RXF 393; UO-31; A498; OVCAR-8; CCRF-CEM; SK-OV-3; SF-268; LOX IMVI; HCT-15; A549; IGROV-1; RPMI-8226; Hs-578T; LXFL 529.
Holding throughout (assay): growth of human tumour cells (NCI), 48 h

For the compound `CC(O)c1cc2c(s1)C(=O)c1sccc1C2=O` (stereo not given), the GI50 with UACC-62 was 0.0519 µM (active); with OVCAR-4, 0.168 µM (active); with SW-620 it was 0.0453 µM (active); in the assay on MDA-MB-231 it was 0.172 µM (active); in the assay on T47D, 0.329 µM (active); in the assay on RXF 393 it was 0.172 µM (active). For the same compound, the GI50 was 0.185 µM (active) in the assay with UO-31; 0.29 µM (active) with A498; 0.191 µM (active) with OVCAR-8; 0.334 µM (active) in the assay with CCRF-CEM; 1.49 µM (inactive) in the assay on SK-OV-3; 0.114 µM (active) with SF-268. In addition, the GI50 is 0.0247 µM (active) in the assay with LOX IMVI; 0.0454 µM with HCT-15; 0.155 µM (active) in the assay on A549; 0.248 µM (active) with IGROV-1; 0.184 µM (active) in the assay with RPMI-8226; 0.0638 µM (active) with Hs-578T.

As for `NC(=O)C1CCCNC1` (stereo not given), the GI50 in the assay with UACC-62, in the assay on OVCAR-4, in the assay on SW-620, in the assay with MDA-MB-231, in the assay with T47D and with RXF 393 was > 100 µM (inactive) in each case. Moreover, the GI50 in the assay with UO-31, in the assay on A498, in the assay with OVCAR-8, with CCRF-CEM, in the assay on SK-OV-3 and with SF-268 was > 100 µM (inactive) in each case. In addition, the GI50 was > 100 µM (inactive) with LOX IMVI; > 100 µM with HCT-15; > 100 µM (inactive) in the assay on A549; > 100 µM (inactive) in the assay with IGROV-1; > 100 µM (inactive) in the assay with RPMI-8226; > 100 µM (inactive) with Hs-578T.

For `N#Cc1c(N)n(C2OC(CO)C(O)C2O)c2ncnc(N)c12` (stereo not given), the GI50 in the assay with UACC-62 was 0.0168 µM (active); with OVCAR-4, 0.049 µM (active); in the assay on SW-620, 0.0228 µM (active); in the assay with MDA-MB-231 it was 0.0364 µM (active); with T47D it was 0.0403 µM (active); in the assay with RXF 393, 0.153 µM (active). Also, the GI50 in the assay on UO-31 was 0.0847 µM (active); in the assay with A498, 0.175 µM (active); in the assay on OVCAR-8, 0.014 µM (active); with CCRF-CEM, 0.025 µM (active); in the assay with SK-OV-3 it was 0.0649 µM (active); in the assay on SF-268, 0.0597 µM (active). The GI50 in the assay on LOX IMVI is 0.0165 µM (active); with HCT-15, 0.0277 µM; with A549 it was 0.119 µM (active); with IGROV-1, 0.22 µM (active); with RPMI-8226 it was 0.184 µM (active); with Hs-578T it was 0.144 µM (active).

In the case of `CCOP(=O)(OCC)c1cc2cc(O)ccc2oc1=O`, the GI50 in the assay with UACC-62, with OVCAR-4, in the assay with SW-620, with MDA-MB-231, in the assay on T47D and in the assay on RXF 393 was > 100 µM (inactive) in each case. Also, the GI50 with UO-31 was 0.0112 µM (active); in the assay on A498, > 100 µM (inactive); with OVCAR-8, > 100 µM (inactive); in the assay on CCRF-CEM it was > 100 µM (inactive); with SK-OV-3, > 100 µM (inactive); with SF-268, > 100 µM (inactive). In addition, the GI50 was > 100 µM (inactive) in the assay with LOX IMVI; > 100 µM in the assay with HCT-15; > 100 µM (inactive) in the assay with A549; > 100 µM (inactive) with IGROV-1; > 100 µM (inactive) in the assay on RPMI-8226; > 100 µM (inactive) with Hs-578T.

Take `COc1ccc(C2S/C(=C\c3ccc(OC)cc3OC)C(=O)N2NC(=O)Cc2ccccc2)cc1` (stereo not given): the GI50 with UACC-62, in the assay with LXFL 529, with OVCAR-4, in the assay with SW-620, in the assay with RXF 393 and in the assay with UO-31 was > 100 µM (inactive) each time. The GI50 in the assay on A498 is > 100 µM (inactive); in the assay on OVCAR-8, > 100 µM (inactive); in the assay with CCRF-CEM, 89.5 µM (inactive); with SK-OV-3, > 100 µM (inactive); with SF-268, > 100 µM (inactive); in the assay on LOX IMVI, > 100 µM (inactive). Moreover, the GI50 is > 100 µM in the assay on HCT-15, > 100 µM (inactive) in the assay on A549, > 100 µM (inactive) in the assay on IGROV-1 and > 100 µM (inactive) in the assay with RPMI-8226.

For `CSc1c(CC(=O)O)n(Cc2ccccc2)c2ccccc12`, the GI50 is 81.3 µM (inactive) in the assay with UACC-62; 61.7 µM (inactive) in the assay on OVCAR-4; > 100 µM (inactive) in the assay on SW-620; > 100 µM (inactive) in the assay with MDA-MB-231; 91.6 µM (inactive) in the assay on T47D; > 100 µM (inactive) with RXF 393. Also, the GI50 in the assay with UO-31 was > 100 µM (inactive); in the assay on A498, > 100 µM (inactive); in the assay on OVCAR-8 it was > 100 µM (inactive); with CCRF-CEM, 84.7 µM (inactive); in the assay with SK-OV-3, > 100 µM (inactive); with SF-268, > 100 µM (inactive). Besides, the GI50 in the assay on LOX IMVI was > 100 µM (inactive); with HCT-15 it was 74.5 µM; in the assay on A549 it was 35.8 µM (inactive); in the assay on IGROV-1 it was > 100 µM (inactive); in the assay with RPMI-8226, 71.1 µM (inactive); with Hs-578T it was > 100 µM (inactive).

For `CC(=O)N1c2ccccc2N(C(C)=O)C1c1ccc(C2N(C(C)=O)c3ccccc3N2C(C)=O)[nH]1`, the GI50 in the assay with UACC-62, in the assay with LXFL 529, in the assay with OVCAR-4, with SW-620, with RXF 393 and in the assay on UO-31 was > 100 µM (inactive) throughout. For the same compound, the GI50 in the assay on A498, in the assay on OVCAR-8, with CCRF-CEM, in the assay on SK-OV-3, with SF-268 and in the assay with LOX IMVI was > 100 µM (inactive) each time. For the same compound, the GI50 is > 100 µM in the assay on HCT-15, > 100 µM (inactive) in the assay on A549, > 100 µM (inactive) in the assay with IGROV-1 and > 100 µM (inactive) in the assay with RPMI-8226.

Consider `O=C1/C(=C/c2ccc(O)cc2)CCC1CNc1ccccc1` (stereo not given), for which the GI50 was 13.1 µM (inactive) with UACC-62; 19.1 µM (inactive) in the assay with OVCAR-4; 2.54 µM (inactive) in the assay with SW-620; 14.4 µM (inactive) in the assay with MDA-MB-231; 10.3 µM (inactive) in the assay on T47D; 20.3 µM (inactive) with RXF 393. Also, the GI50 with UO-31 is 15.6 µM (inactive); in the assay on A498 it was 17.9 µM (inactive); in the assay with OVCAR-8 it was 16 µM (inactive); in the assay with CCRF-CEM it was 1.61 µM (inactive); in the assay on SK-OV-3, 22.5 µM (inactive); in the assay on SF-268 it was 14.8 µM (inactive). In addition, the GI50 was 8.38 µM (inactive) in the assay on LOX IMVI; 5.05 µM in the assay with HCT-15; 17.8 µM (inactive) with A549; 11.3 µM (inactive) in the assay with IGROV-1; 1.15 µM (inactive) with RPMI-8226; 21.5 µM (inactive) in the assay with Hs-578T.

For `COC(=O)C1=C(O)C(C(=O)OC)[C@]2(O)[C@H](C(=O)OC)[C@H]1C[C@@H](c1ccc(O)cc1)[C@H]2C(=O)OC` (stereo not given in full), the GI50 in the assay on UACC-62 is 31.3 µM (inactive); in the assay on OVCAR-4 it was 36.4 µM (inactive); with SW-620, 50.7 µM (inactive); in the assay on MDA-MB-231, 23.1 µM (inactive); in the assay with T47D it was 23.9 µM (inactive); with RXF 393 it was 15.8 µM (inactive). Also, the GI50 with UO-31 was 45 µM (inactive); in the assay on A498 it was 33.3 µM (inactive); with OVCAR-8, 33.4 µM (inactive); in the assay on CCRF-CEM it was 54 µM (inactive); in the assay with SK-OV-3 it was 26.5 µM (inactive); in the assay on SF-268 it was 30.3 µM (inactive). Moreover, the GI50 in the assay on LOX IMVI was 29.2 µM (inactive); in the assay on HCT-15 it was 26.1 µM; in the assay with A549, 32.5 µM (inactive); in the assay with IGROV-1, 41.2 µM (inactive); in the assay on RPMI-8226, 27.9 µM (inactive); in the assay with Hs-578T, 26.1 µM (inactive).

On to `C/C(=N\Nc1nc2ccccc2[nH]1)c1ncccn1`, for which the GI50 was 0.0693 µM (active) in the assay on UACC-62; 0.0528 µM (active) in the assay on OVCAR-4; 0.0344 µM (active) with SW-620; 0.059 µM (active) in the assay with MDA-MB-231; 0.0215 µM (active) in the assay with T47D; 0.0771 µM (active) with RXF 393. The GI50 with UO-31 was < 0.0202 µM (active); in the assay with A498 it was 0.0851 µM (active); with OVCAR-8, 0.043 µM (active); in the assay on CCRF-CEM, 0.0303 µM (active); with SK-OV-3 it was 0.214 µM (active); with SF-268, 0.0382 µM (active). For the same compound, the GI50 in the assay on LOX IMVI is 0.047 µM (active); in the assay on HCT-15 it was 0.0302 µM; in the assay on A549, 0.0682 µM (active); in the assay on IGROV-1, < 0.031 µM (active); with RPMI-8226, 0.0585 µM (active); in the assay with Hs-578T, 12.1 µM (inactive).

For `C/C(=C\c1ccccc1)C(O)S(=O)(=O)O` (stereo not given), the GI50 with UACC-62, in the assay on LXFL 529, with OVCAR-4, with SW-620, with RXF 393 and with UO-31 was > 100 µM (inactive) each time. Also, the GI50 in the assay with A498, with OVCAR-8, with CCRF-CEM, in the assay on SK-OV-3, in the assay on SF-268 and with LOX IMVI was > 100 µM (inactive) in each case. Also, the GI50 is > 100 µM with HCT-15, > 100 µM (inactive) in the assay on A549, > 100 µM (inactive) with IGROV-1 and > 100 µM (inactive) with RPMI-8226.

Consider `Nc1nc(O)c(Br)c(-c2cccc([N+](=O)[O-])c2)n1`, for which the GI50 is > 51.9 µM (inactive) with UACC-62; > 100 µM (inactive) in the assay on OVCAR-4; > 100 µM (inactive) in the assay with SW-620; > 100 µM (inactive) with MDA-MB-231; 91 µM (inactive) with T47D; > 100 µM (inactive) with RXF 393. Also, the GI50 with UO-31 was > 62.1 µM (inactive); with A498 it was > 100 µM (inactive); in the assay on OVCAR-8 it was 73.5 µM (inactive); in the assay on CCRF-CEM, > 100 µM (inactive); with SK-OV-3, > 61.9 µM (inactive); in the assay on SF-268, > 82.4 µM (inactive). The GI50 is > 100 µM (inactive) with LOX IMVI; > 100 µM in the assay on HCT-15; > 46.9 µM (inactive) in the assay with A549; > 83.8 µM (inactive) in the assay on IGROV-1; 37.8 µM (inactive) in the assay on RPMI-8226; > 100 µM (inactive) in the assay on Hs-578T.
